Reference: US20180086714A1 (priority 2015, published 2018)

Columns and labels:
Type in all cases: cell-based
Septoria tritici = assay: Microtest, activity against leaf blotch on wheat; settings: 405 nm 9 days after inoculation, comparative example
Phytophthora infestans = settings: 405 nm 7 days after inoculation, comparative example
Leptosphaeria nodorum = assay: Microtest, activity against wheat leaf spots; settings: 405 nm 9 days after inoculation, comparative example

SMILES	Growth (%) at 8 ppm (Septoria tritici) [%]	Growth (%) at 31 ppm (Phytophthora infestans) [%]	Growth (%) at 2 ppm (Leptosphaeria nodorum) [%]
CC1(C)N=C(c2cnc3ccccc3c2)c2ccccc2C1(C)C	74		
CC1(C)N=C(c2cnc3ccccc3c2)c2[nH]ccc2C1(C)C	53		
CC1(C)Cc2ccccc2C(c2cnc3ccccc3c2)=N1 [drawing 139]		33	
CC1(C)Cc2cc[nH]c2C(c2cnc3ccccc3c2)=N1 [drawing 140]		17	
CC1(C)Cc2ccccc2C(c2cnc3ccccc3c2)=N1 [drawing 141]			83
CC1(C)Cc2cc[nH]c2C(c2cnc3ccccc3c2)=N1 [drawing 142]			65
